Experimental data as given in PMC5062570 (Nature Communications, 2016).
Entries after “also recorded” stand apart in the source; their conditions may differ. Like-named read-outs stand apart in the source and are kept apart here.

Legend:
BACE2 = molecular target: T1, BACE2 (Homo sapiens, UniProt Q9Y5Z0); assay: BACE2 purified enzyme fluorescence polarization assay; format: biochemical; conditions: purified human enzyme, fluorescence polarization
T1 construct: purchased R&D Systems 4097-AS
T1 sequence (Q9Y5Z0 63-518): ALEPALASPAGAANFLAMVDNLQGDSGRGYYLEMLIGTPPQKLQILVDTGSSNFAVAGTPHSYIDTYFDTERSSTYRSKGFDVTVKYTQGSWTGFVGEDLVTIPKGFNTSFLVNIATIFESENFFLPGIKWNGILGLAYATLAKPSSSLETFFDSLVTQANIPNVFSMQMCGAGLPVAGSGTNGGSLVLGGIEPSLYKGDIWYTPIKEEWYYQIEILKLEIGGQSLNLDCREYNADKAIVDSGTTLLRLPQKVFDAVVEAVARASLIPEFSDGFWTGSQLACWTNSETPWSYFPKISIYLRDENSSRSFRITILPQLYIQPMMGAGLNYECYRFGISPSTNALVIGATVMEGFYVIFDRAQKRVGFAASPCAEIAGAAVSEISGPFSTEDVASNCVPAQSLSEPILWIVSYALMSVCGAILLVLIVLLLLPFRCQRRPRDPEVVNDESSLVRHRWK
In short: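 Purified enzymes incubated with compound (1% DMSO, 37 °C) and 150 nM biotinylated peptide substrate in 100 mM NaOAc pH 4.5. Reaction stopped with 1.5 μM streptavidin; inhibition read by fluorescence polarization. BACE2 0.5 nM, BACE1 substrate, 1 h; CatE 1.0 nM, CatD substrate, 1.5 h.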

[1] = Plasma exposure (average unbound plasma concentration) in rats; format: in vivo, rat; conditions: for Exposure: rat exploratory toxicology studies; for Avg Cp,u metabolite: active metabolite of the dosed compound
Experimental: (§1) Wistar Han rats (obtained from Charles River, 125–300 g, 6–9 weeks old at study start, see Supplementary Table 7 for number of males and females) received daily oral dosing of test compounds or vehicle at the indicated concentrations for 7–29 days as indicated. The doses were prepared in a solution of 0.5% methylcellulose and 0.2% polysorbate 80, or 0.5% methylcellulose and hydroxypropyl methylcellulose acetate succinate (high fine grade) and delivered in a volume of 10 ml kg^−1 per day. Blood samples for bioanalytical analysis were collected in K2EDTA tubes via jugular vessel. Plasma was isolated after centrifugation and stored at −20 °C prior to analysis. Animals were given an additional dose the day after the end of the study (days 8, 15 or 30 for 7, 14 and 29 day studies, respectively) then killed by gas anaesthesia (isoflurane) followed by exsanguination ∼3 h after this final dose.
Plasma samples were analysed after protein precipitation by treating 20 μl of sample matrix with 200 μl of acetonitrile containing internal standard. All samples were centrifuged at 3,000 r.p.m. for 5 min. Then 100 μl of supernatant was transferred to a clean plate and evaporated to dryness under N2. Samples were reconstituted in 200 μl of 80:20 (v:v) acetonitrile:water. Samples were analysed on Waters Acquity UPLC connected to AB Sciex API5500 QTrap MS/MS.
Plasma protein binding was determined in the Rapid Equilibrium Device (RED, Thermo Scientific). Frozen plasma was warmed to 37 °C and adjusted to pH 7.4. The plasma was spiked with compound to a final concentration of 2 μM. Aliquots of spiked plasma were added to the donor (red) side, followed by addition of buffer to the receiver (white) side. The RED device was covered with a gas-permeable membrane and agitated within a humidified CO2 incubator (5% CO2, 75% relative humidity). Plasma (15 μl) and buffer (45 μl) were sampled from each insert and were matrix-matched with appropriate blank matrix (plasma with 45 μl buffer and buffer with 15 μl of plasma). Samples were protein-precipitated with acetonitrile containing internal standard, and the resulting supernatant was analysed by LC-MS/MS.

BACE1 [2] = molecular target: T2, BACE1 (Homo sapiens, UniProt P56817); assay: BACE1 biochemical cellular assay (sAPPβ ELISA in H4 cells overexpressing APP695); format: cell-based; set-up: endogenous in cells; host or cells: H4 human neuroglioma cells overexpressing human APP695; conditions: for BACE1 potency increase in live cells: BACE1 enzyme IC50 versus BACE1 cellular IC50; for IC50: sAPPβ ELISA, H4 neuroglioma cells with human wild-type APP
Experimental: Cellular inhibition of BACE1 was determined by measuring sAPPβ, the primary cleavage product of BACE-1, in H4 human neuroglioma cells overexpressing the wild-type human APP695. […] The colorimetric reaction was read by an EnVision plate reader (PerkinElmer).
Target sequence in this assay (P56817 46-501): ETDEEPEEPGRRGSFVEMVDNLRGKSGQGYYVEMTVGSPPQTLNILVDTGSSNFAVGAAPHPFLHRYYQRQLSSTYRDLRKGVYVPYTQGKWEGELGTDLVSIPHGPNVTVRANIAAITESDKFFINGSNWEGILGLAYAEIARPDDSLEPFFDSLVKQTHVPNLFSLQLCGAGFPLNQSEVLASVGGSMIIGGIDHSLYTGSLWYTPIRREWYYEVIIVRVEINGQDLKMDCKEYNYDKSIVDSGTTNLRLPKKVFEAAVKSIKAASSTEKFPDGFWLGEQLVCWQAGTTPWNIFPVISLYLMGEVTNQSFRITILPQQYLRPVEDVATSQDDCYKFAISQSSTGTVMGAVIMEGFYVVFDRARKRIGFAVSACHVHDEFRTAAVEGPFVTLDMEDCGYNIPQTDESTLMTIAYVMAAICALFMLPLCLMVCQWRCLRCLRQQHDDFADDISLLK

[3] = system: retinal pigment epithelium (RPE); assay: Exploratory toxicology, ocular toxicity by retinal histology in rats; format: in vivo; conditions: 14 days; for Female ocular toxicity incidence (positive or negative animals / total evaluated) / Female ocular toxicity outcome / Male ocular toxicity incidence (positive or negative animals / total evaluated) / Male ocular toxicity outcome: rat; for Retinal finding by fluorescence microscopy: rats
Experimental: as §1

[4] = pKa determination by multiplexed capillary electrophoresis; format: physicochemical; conditions: aqueous buffers
Experimental: All pKa values were determined at Analiza, Inc. by multiplexed capillary electrophoresis (mCE) using 96-capillary array electrophoresis instrument to measure the effective mobility (migration time of the compound in relation to neutral marker, DMSO) with ultraviolet detection. The pKa values were obtained from the ionization curves by plotting the compound effective mobility (24 points across pH range 1.7–11.2) versus pH. All pKa results were determined using aqueous buffers with method average absolute error 0.12.

BACE1 [5] = molecular target: T2, BACE1; assay: BACE1 purified enzyme fluorescence polarization assay; format: biochemical; set-up: His (C); made in house; host or cells: CHO-K1; conditions: purified human enzyme, fluorescence polarization, peptide substrate
Target sequence in this assay (P56817 46-457): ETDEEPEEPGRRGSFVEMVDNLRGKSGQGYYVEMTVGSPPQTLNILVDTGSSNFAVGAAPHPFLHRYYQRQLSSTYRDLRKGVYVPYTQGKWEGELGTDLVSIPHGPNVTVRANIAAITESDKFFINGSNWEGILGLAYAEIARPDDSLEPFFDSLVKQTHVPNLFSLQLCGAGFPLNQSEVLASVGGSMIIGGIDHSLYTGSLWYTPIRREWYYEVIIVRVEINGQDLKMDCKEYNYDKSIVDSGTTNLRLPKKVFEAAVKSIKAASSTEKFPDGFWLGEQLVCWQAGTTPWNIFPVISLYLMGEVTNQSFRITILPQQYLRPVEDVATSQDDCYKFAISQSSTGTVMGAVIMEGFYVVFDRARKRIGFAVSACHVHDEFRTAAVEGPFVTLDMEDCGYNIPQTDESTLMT

CatD = CatD (Homo sapiens, UniProt P07339); assay: CatD purified enzyme fluorescence polarization assay; format: biochemical; set-up: final maturation into a non-covalently associated heavy chain and light chain; purchased Sigma C8696; host or cells: human liver; conditions: purified human enzyme, fluorescence polarization, substrate-based
CatD, sequence (P07339 65-162 limits assumed): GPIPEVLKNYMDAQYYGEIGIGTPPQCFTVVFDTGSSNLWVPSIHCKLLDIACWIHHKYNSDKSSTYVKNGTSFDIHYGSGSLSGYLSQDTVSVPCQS
CatD, sequence (P07339 169-412 limits assumed): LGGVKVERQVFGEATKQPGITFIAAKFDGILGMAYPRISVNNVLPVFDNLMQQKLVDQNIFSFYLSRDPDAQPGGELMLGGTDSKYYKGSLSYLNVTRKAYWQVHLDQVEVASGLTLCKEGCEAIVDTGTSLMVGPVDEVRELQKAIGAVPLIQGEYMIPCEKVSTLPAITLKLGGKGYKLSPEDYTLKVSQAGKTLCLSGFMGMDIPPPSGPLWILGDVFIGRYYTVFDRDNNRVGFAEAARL

Structure (SMILES): Cc1cc([C@H]2C[C@H]3[C@@H](CF)SC(N)=N[C@@]3(c3ccc(F)cc3F)CO2)on1 [PF-3195]
- IC50 (BACE2): 150 nM
- Exposure [1]: unexpectedly low exposures
- Avg Cp,u metabolite ([1]; rat, 14 days, 15 mg kg-1 once daily): 460 nM
- concentration at 29 days ([1]; rat, 14 days, 15 mg kg-1 once daily, average unbound plasma concentration, read-out: Avg Cp,u parent): 5.4 nM
- Avg Cp,u metabolite ([1]; rat, 14 days, 40 mg kg-1 once daily): 2570 nM
- concentration at 29 days ([1]; rat, 14 days, 40 mg kg-1 once daily, average unbound plasma concentration, read-out: Avg Cp,u parent): 58 nM
- Avg Cp,u metabolite ([1]; rat, 14 days, 90 mg kg-1 once daily): 6350 nM
- concentration at 29 days ([1]; rat, 14 days, 90 mg kg-1 once daily, average unbound plasma concentration, read-out: Avg Cp,u parent): 232 nM
- Avg Cp,u metabolite ([1]; rat, 14 days, 200 mg kg-1 once daily): 17300 nM
- concentration at 29 days ([1]; rat, 14 days, 200 mg kg-1 once daily, average unbound plasma concentration, read-out: Avg Cp,u parent): 1790 nM
- BACE1 potency increase in live cells (BACE1 [2]): 4.1 x
- IC50 (BACE1 [2]): 15 nM
- Female ocular toxicity incidence (positive or negative animals / total evaluated) ([3]; 15 mg kg-1 once daily): 3/3
- Female ocular toxicity outcome ([3]; 15 mg kg-1 once daily): Neg (negative (neg) if there was no ocular abnormality observed)
- Male ocular toxicity incidence (positive or negative animals / total evaluated) ([3]; 15 mg kg-1 once daily): 3/3
- Male ocular toxicity outcome ([3]; 15 mg kg-1 once daily): Neg (negative (neg) if there was no ocular abnormality observed)
- Female ocular toxicity incidence (positive or negative animals / total evaluated) ([3]; 40 mg kg-1 once daily): 3/3
- Female ocular toxicity outcome ([3]; 40 mg kg-1 once daily): Neg (negative (neg) if there was no ocular abnormality observed)
- Male ocular toxicity incidence (positive or negative animals / total evaluated) ([3]; 40 mg kg-1 once daily): 3/3
- Male ocular toxicity outcome ([3]; 40 mg kg-1 once daily): Neg (negative (neg) if there was no ocular abnormality observed)
- Female ocular toxicity incidence (positive or negative animals / total evaluated) ([3]; 90 mg kg-1 once daily): 2/3
- Female ocular toxicity outcome ([3]; 90 mg kg-1 once daily): Pos
- Male ocular toxicity incidence (positive or negative animals / total evaluated) ([3]; 90 mg kg-1 once daily): 1/3
- Male ocular toxicity outcome ([3]; 90 mg kg-1 once daily): Pos
- Female ocular toxicity incidence (positive or negative animals / total evaluated) ([3]; 200 mg kg-1 once daily): 2/3
- Female ocular toxicity outcome ([3]; 200 mg kg-1 once daily): Pos
- Male ocular toxicity incidence (positive or negative animals / total evaluated) ([3]; 200 mg kg-1 once daily): 3/3
- Male ocular toxicity outcome ([3]; 200 mg kg-1 once daily): Pos
- Retinal finding by fluorescence microscopy ([3]; 15 mg kg-1 or 40 mg kg-1 daily): no intermediate phenotype
- Retinal finding by fluorescence microscopy ([3]; 90 mg kg-1 or 200 mg kg-1 daily): accumulated autofluorescent granules
- pKa [4]: 7.0
- IC50 (BACE1 [5]): 62 nM
- IC50 (CatD): 9000 nM

Structure (SMILES): Cc1cc([C@H]2C[C@H]3[C@@H](C)SC(N)=N[C@@]3(c3ccc(F)cc3F)CO2)on1 [PF-9283]
- IC50 (BACE2): 140 nM
- concentration at 14 days ([1]; Wistar Han, oral, rat, 14 days, 30 mg kg-1 once daily, average unbound plasma concentration, read-out: Avg Cp,u parent): 29 nM
- Exposure [1]: unexpectedly low exposures
- BACE1 potency increase in live cells (BACE1 [2]): 12 x
- IC50 (BACE1 [2]): 6 nM
- Female ocular toxicity incidence (positive or negative animals / total evaluated) ([3]; 30 mg kg-1 once daily): 1/3
- Female ocular toxicity outcome ([3]; 30 mg kg-1 once daily): Pos
- Male ocular toxicity incidence (positive or negative animals / total evaluated) ([3]; 30 mg kg-1 once daily): 3/3
- Male ocular toxicity outcome ([3]; 30 mg kg-1 once daily): Neg (negative (neg) if there was no ocular abnormality observed)
- Retinal finding by fluorescence microscopy ([3]; 80 mg kg-1 daily): accumulation of autofluorescent granules (AFG) in the RPE; also recorded: accumulated autofluorescent granules are visible
- pKa [4]: 7.7
- IC50 (BACE1 [5]): 74 nM
- IC50 (CatD): 12000 nM
